Results from ChEMBL document CHEMBL2413025, “Synthesis, biological activity and molecular modeling studies on 1H-benzimidazole derivatives as acetylcholinesterase inhibitors” (Bioorg Med Chem, 2013).

Legend:
Acetylcholinesterase [1] = target: Acetylcholinesterase (Homo sapiens, UniProt P22303); test: Inhibition of recombinant human AChE using acetylthiocholine iodide as substrate preincubated for 5 mins before substrate addition by Ellman's method
Acetylcholinesterase [2] = target: Acetylcholinesterase (Electrophorus electricus, UniProt O42275)
Acetylcholinesterase (Electrophorus electricus, UniProt O42275), sequence (O42275 whole entry): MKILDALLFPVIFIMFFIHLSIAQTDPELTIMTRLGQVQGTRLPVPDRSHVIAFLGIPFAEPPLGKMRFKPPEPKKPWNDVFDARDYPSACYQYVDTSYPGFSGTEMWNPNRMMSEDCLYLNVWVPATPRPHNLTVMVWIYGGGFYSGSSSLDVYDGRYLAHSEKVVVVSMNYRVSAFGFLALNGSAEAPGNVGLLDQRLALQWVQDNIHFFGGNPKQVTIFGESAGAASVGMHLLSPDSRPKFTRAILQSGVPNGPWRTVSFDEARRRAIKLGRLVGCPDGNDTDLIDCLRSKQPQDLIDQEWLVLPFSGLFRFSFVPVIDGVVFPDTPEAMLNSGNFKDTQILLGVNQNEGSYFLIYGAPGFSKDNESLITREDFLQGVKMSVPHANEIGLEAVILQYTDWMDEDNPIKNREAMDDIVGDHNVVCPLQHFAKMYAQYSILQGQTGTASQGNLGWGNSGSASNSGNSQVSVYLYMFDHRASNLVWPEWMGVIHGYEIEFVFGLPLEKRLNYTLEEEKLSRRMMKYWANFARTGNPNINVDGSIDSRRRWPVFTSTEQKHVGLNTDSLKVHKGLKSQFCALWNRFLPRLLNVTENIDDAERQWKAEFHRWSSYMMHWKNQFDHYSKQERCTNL
Description: Inhibition of electric eel AChE using acetylthiocholine iodide as substrate preincubated for 5 mins before substrate addition by Ellman's method

Cholinesterase = Cholinesterase (Equus caballus, UniProt P81908)
Cholinesterase, sequence (P81908 whole entry): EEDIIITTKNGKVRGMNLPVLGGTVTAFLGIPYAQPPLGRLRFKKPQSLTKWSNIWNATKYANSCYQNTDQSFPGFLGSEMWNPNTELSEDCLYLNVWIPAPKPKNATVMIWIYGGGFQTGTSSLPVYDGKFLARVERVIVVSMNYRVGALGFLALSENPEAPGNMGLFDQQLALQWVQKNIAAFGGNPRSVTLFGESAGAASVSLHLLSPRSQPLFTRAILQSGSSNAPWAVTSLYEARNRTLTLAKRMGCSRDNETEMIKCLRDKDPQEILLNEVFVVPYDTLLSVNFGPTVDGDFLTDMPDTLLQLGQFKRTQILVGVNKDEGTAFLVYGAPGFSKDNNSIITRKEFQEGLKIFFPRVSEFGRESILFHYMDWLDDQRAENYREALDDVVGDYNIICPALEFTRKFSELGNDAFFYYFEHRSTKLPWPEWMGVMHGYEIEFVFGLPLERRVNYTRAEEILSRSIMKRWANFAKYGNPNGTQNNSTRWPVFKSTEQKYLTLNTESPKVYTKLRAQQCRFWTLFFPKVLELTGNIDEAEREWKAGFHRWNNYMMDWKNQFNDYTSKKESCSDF
Description: Inhibition of horse serum BChE using acetylthiocholine iodide as substrate preincubated for 5 mins before substrate addition by Ellman's method

[3] = Selectivity ratio of IC50 for horse serum BChE to IC50 for electric eel AChE

Acetylcholinesterase (Homo sapiens, UniProt P22303), sequence (P22303 whole entry): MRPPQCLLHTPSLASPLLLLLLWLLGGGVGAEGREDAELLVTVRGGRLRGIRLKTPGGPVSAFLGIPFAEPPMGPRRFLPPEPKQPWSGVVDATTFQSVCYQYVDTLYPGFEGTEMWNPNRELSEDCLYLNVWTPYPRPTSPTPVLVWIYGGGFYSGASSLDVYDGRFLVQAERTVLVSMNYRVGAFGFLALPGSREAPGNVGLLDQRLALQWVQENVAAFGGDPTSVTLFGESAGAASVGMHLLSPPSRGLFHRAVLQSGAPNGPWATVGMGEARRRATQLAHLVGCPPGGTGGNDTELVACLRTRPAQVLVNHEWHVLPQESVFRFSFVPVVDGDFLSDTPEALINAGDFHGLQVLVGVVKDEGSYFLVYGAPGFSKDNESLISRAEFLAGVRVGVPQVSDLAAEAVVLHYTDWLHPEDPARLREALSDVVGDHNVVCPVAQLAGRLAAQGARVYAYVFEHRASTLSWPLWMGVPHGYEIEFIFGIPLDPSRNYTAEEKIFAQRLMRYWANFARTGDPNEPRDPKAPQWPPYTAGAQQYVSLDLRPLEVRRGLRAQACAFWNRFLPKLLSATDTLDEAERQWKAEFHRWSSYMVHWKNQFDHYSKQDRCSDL

Clc1ccc2[nH]c(-c3ccc(OCCN4CCOCC4)cc3)nc2c1
IC50 (Acetylcholinesterase [1]): 9.73 µM | IC50 (Acetylcholinesterase [2]): 11.1 µM | IC50 (Cholinesterase): > 100 µM

Cc1ccc2[nH]c(-c3ccc(OCCN4CCCCC4)cc3)nc2c1
IC50 (Acetylcholinesterase [1]): 0.39 µM | IC50 (Acetylcholinesterase [2]): 0.84 µM | IC50 (Cholinesterase): 1.37 µM | Ratio IC50 [3]: 1.6

CC(C)N(CCOc1ccc(-c2nc3ccc(Cl)cc3[nH]2)cc1)C(C)C
IC50 (Acetylcholinesterase [1]): 3.68 µM | IC50 (Acetylcholinesterase [2]): 0.58 µM | IC50 (Cholinesterase): 7.44 µM

CN(C)CCOc1ccc(-c2nc3ccccc3[nH]2)cc1
IC50 (Acetylcholinesterase [1]): 10.7 µM | IC50 (Acetylcholinesterase [2]): 13.1 µM | IC50 (Cholinesterase): 5.87 µM | Ratio IC50 [3]: 0.4

Clc1ccc2nc(-c3ccc(OCCN4CCCCC4)cc3)[nH]c2c1
IC50 (Acetylcholinesterase [1]): 0.13 µM | IC50 (Acetylcholinesterase [2]): 0.61 µM | IC50 (Cholinesterase): > 100 µM

c1ccc2[nH]c(-c3ccc(OCCN4CCOCC4)cc3)nc2c1
IC50 (Acetylcholinesterase [1]): > 100 µM | IC50 (Acetylcholinesterase [2]): 18.8 µM | IC50 (Cholinesterase): > 100 µM

Cc1ccc2[nH]c(-c3ccc(O)cc3)nc2c1
IC50 (Acetylcholinesterase [1]): > 100 µM | IC50 (Acetylcholinesterase [2]): 15.9 µM | IC50 (Cholinesterase): 4.67 µM | Ratio IC50 [3]: 0.3

CCN(CC)CCOc1ccc(-c2nc3cc(Cl)ccc3[nH]2)cc1
IC50 (Acetylcholinesterase [1]): 8.75 µM | IC50 (Acetylcholinesterase [2]): 3.5 µM | IC50 (Cholinesterase): > 100 µM

CC(C)N(CCOc1ccc(-c2nc3ccccc3[nH]2)cc1)C(C)C
IC50 (Acetylcholinesterase [1]): 23.4 µM | IC50 (Acetylcholinesterase [2]): 1.19 µM | IC50 (Cholinesterase): 4.11 µM | Ratio IC50 [3]: 3.5

c1ccc2[nH]c(-c3ccc(OCCN4CCCC4)cc3)nc2c1
IC50 (Acetylcholinesterase [1]): 2.13 µM | IC50 (Acetylcholinesterase [2]): 3.05 µM | IC50 (Cholinesterase): 23 µM | Ratio IC50 [3]: 7.6

CCN(CC)CCOc1ccc(-c2nc3cc(C)ccc3[nH]2)cc1
Ratio IC50 [3]: 2.8

Oc1ccc(-c2nc3cc(Cl)ccc3[nH]2)cc1
IC50 (Acetylcholinesterase [1]): > 100 µM | IC50 (Acetylcholinesterase [2]): 14.6 µM | IC50 (Cholinesterase): 8.52 µM | Ratio IC50 [3]: 0.6

CCN(CC)CCOc1ccc(-c2nc3ccc(C)cc3[nH]2)cc1
IC50 (Acetylcholinesterase [1]): 51 µM | IC50 (Acetylcholinesterase [2]): 2.34 µM | IC50 (Cholinesterase): 6.48 µM

CCN(CC)CCOc1ccc(-c2nc3ccccc3[nH]2)cc1
IC50 (Acetylcholinesterase [1]): > 100 µM | IC50 (Acetylcholinesterase [2]): 15.6 µM | IC50 (Cholinesterase): 5.06 µM | Ratio IC50 [3]: 0.3

c1ccc2[nH]c(-c3ccc(OCCN4CCCCC4)cc3)nc2c1
IC50 (Acetylcholinesterase [1]): 1.03 µM | IC50 (Acetylcholinesterase [2]): 1.08 µM | IC50 (Cholinesterase): 2.45 µM | Ratio IC50 [3]: 2.3

Oc1ccc(-c2nc3ccccc3[nH]2)cc1
IC50 (Acetylcholinesterase [1]): > 100 µM | IC50 (Acetylcholinesterase [2]): 17.3 µM | IC50 (Cholinesterase): 4.59 µM | Ratio IC50 [3]: 0.3

CN(C)CCOc1ccc(-c2nc3ccc(Cl)cc3[nH]2)cc1
IC50 (Acetylcholinesterase [1]): 8.02 µM | IC50 (Acetylcholinesterase [2]): 2.68 µM | IC50 (Cholinesterase): > 100 µM

Cc1ccc2[nH]c(-c3ccc(OCCN4CCOCC4)cc3)nc2c1
IC50 (Acetylcholinesterase [1]): 12.9 µM | IC50 (Acetylcholinesterase [2]): > 100 µM | IC50 (Cholinesterase): > 100 µM

Cc1ccc2[nH]c(-c3ccc(OCCN(C)C)cc3)nc2c1
IC50 (Acetylcholinesterase [1]): 12.3 µM | IC50 (Acetylcholinesterase [2]): 5.06 µM | IC50 (Cholinesterase): > 100 µM

Clc1ccc2[nH]c(-c3ccc(OCCN4CCCC4)cc3)nc2c1
IC50 (Acetylcholinesterase [1]): 1.4 µM | IC50 (Acetylcholinesterase [2]): 3.24 µM | IC50 (Cholinesterase): 3.42 µM | Ratio IC50 [3]: 1.1

CC(C)N(CCOc1ccc(-c2nc3cc(Cl)ccc3[nH]2)cc1)C(C)C
Ratio IC50 [3]: 12.8

Cc1ccc2[nH]c(-c3ccc(OCCN4CCCC4)cc3)nc2c1
IC50 (Acetylcholinesterase [1]): 0.4 µM | IC50 (Acetylcholinesterase [2]): 1.34 µM | IC50 (Cholinesterase): 3.24 µM | Ratio IC50 [3]: 2.4
